The record followed here is PubChem BioAssay AID1259408 (Genetic Toxicology Data Bank (GENE-TOX), 2018).

The series deals with GENE-TOX genotoxicity assays, various organisms and cells. The series is described as follows: GENE-TOX mutagenicity studies. The following applies: for call: Assay Type: In vivo carcinogenicity studies, Assay Code: CCG+L.
The mark [1] stands for this setting: Species/Cell Type: Drosophila melanogaster, Assay Type: Sex-linked recessive lethal gene mutation, Assay Code: SRLT, Evaluation Type: Evaluation A (Pre-1980).
Where [2] appears, read: Species/Cell Type: Glycine max (soybean), Assay Type: Gene mutation, Assay Code: GLM+, Evaluation Type: Evaluation A (Pre-1980).
The mark [3] stands for this setting: Species/Cell Type: Neurospora crassa, Assay Type: Forward gene mutation, Assay Code: NEF+, Evaluation Type: Evaluation A (Pre-1980).
Where [4] appears, read: Species/Cell Type: Nonhuman, Evaluation Type: Evaluation A (Pre-1980).
[5] abbreviates: Species/Cell Type: Drosophila melanogaster, Assay Type: Sex-linked recessive lethal gene mutation, Assay Code: SRL+, Evaluation Type: Evaluation A (Pre-1980).
The mark [6] stands for this setting: Species/Cell Type: Salmonella typhimurium (one or more of the five standard strains: TA98, TA100, TA1535, TA1537, and TA1538), Assay Type: Histidine reverse gene mutation, Ames assay, Assay Code: SAL+*, Activation: With metabolic activation, Evaluation Type: Evaluation A (Pre-1980).
Setting [7] is: Species/Cell Type: Mammalian germ cells, Sex: Male, Assay Type: Chromosome aberrations in vivo, Assay Code: CY9T, Evaluation Type: Evaluation A (Pre-1980).

Activity calls are given as the source filed them. How the calls were made is not given here. Numbered stars: 1 amine (or outer) side, 2 acyl side, 3 side chain; on linkers, the order of the positions; unused ones are H or OH. Bridge positions count the residues as written; N and C are the ends. Square brackets hold non-standard residues; d marks the D form. Peptide text beside a SMILES is read from it. I, II: the chains in the order shown. Actinocin(9to1) = Cc1c2oc3c(C)ccc(C(=O)[*:1])c3nc-2c(C(=O)[*:2])c(N)c1=O; NMeV = CN[C@H](C(=O)O)C(C)C; Sar = CNCC(=O)O

In the case of `Cc1c2oc3c(C)ccc(C(=O)N[C@@H]4C(=O)N[C@H](C(C)C)C(=O)N5CCC[C@H]5C(=O)N(C)CC(=O)N(C)[C@@H](C(C)C)C(=O)O[C@@H]4C)c3nc-2c(C(=O)N[C@@H]2C(=O)N[C@H](C(C)C)C(=O)N3CCC[C@H]3C(=O)N(C)CC(=O)N(C)[C@@H](C(C)C)C(=O)O[C@@H]2C)c(N)c1=O` (I: T[dV]P[Sar][NMeV] / II: T[dV]P[Sar][NMeV]; ester I:1-I:C, II:1-II:C; linker I:N-II:N via Actinocin(9to1)), the mutagenic call (Species/Cell Type: Allium cepa, Assay Type: Chromosome aberrations, Assay Code: ALC+, Evaluation Type: Evaluation A (Pre-1980)) is “active; positive”; the mutagenic call (Species/Cell Type: Chinese hamster lung (V79) cells, Assay Type: Forward gene mutation at the HPRT or ouabain locus, Assay Code: V79-, Evaluation Type: Evaluation A (Pre-1980)) was “inactive; negative”; the mutagenic call (Species/Cell Type: Chinese hamster ovary (CHO) cells, Assay Type: Forward gene mutation at the HPRT locus, Assay Code: CHO+, Evaluation Type: Evaluation B (Post-1980)) was “active; positive”; the mutagenic call (Species/Cell Type: Drosophila melanogaster, Assay Type: Aneuploidy, sex chromosome gain, chromosome aberrations, Assay Code: DAG+F, Evaluation Type: Evaluation A (Pre-1980)) is “active; positive”; the mutagenic call (Species/Cell Type: Drosophila melanogaster, Assay Type: Aneuploidy, whole sex chromosome loss, chromosome aberrations, Assay Code: DAC+F, Evaluation Type: Evaluation A (Pre-1980)) is “active; positive”; the mutagenic call under setting [1] was “no conclusion”. Besides, the mutagenic call by setting is: (Species/Cell Type: Escherichia coli polA (W3119 vs P3478), Assay Type: Rec-assay, DNA effects (bacterial DNA repair), Assay Code: RE1T, Evaluation Type: Evaluation A (Pre-1980)) “no conclusion”; under setting [2], “active; positive”; (Species/Cell Type: Human cell culture, Assay Type: Chromosome aberrations in vitro, Assay Code: CYZ+D, Dose Response: With dose response, Evaluation Type: Evaluation A (Pre-1980)) “active; positive”; (Species/Cell Type: Human lymphocytes, Assay Type: Sister-chromatid exchange (SCE) in vivo, Assay Code: SCY+, Evaluation Type: Evaluation B (Post-1980)) “active; positive”; (Species/Cell Type: Mammalian polychromatic erythrocytes, Assay Type: Micronucleus test, chromosome aberrations, Assay Code: MNTT, Evaluation Type: Evaluation A (Pre-1980)) “no conclusion”; (Species/Cell Type: Mouse (C3H/10T1/2) cells, Assay Type: Cell transformation, Assay Code: CTH+, Evaluation Type: Evaluation A (Pre-1980)) “active; positive”. In addition, the mutagenic call reads like this: (Species/Cell Type: Mouse, Sex: Male, Assay Type: Sperm morphology, Assay Code: SPI+, Evaluation Type: Evaluation A (Pre-1980)) “active; positive”; under setting [3], “active; positive”; (Species/Cell Type: Nonhuman, Assay Type: Chromosome aberrations in vitro, Assay Code: CY&+, Evaluation Type: Evaluation A (Pre-1980)) “active; positive”; (Species/Cell Type: Nonhuman, Assay Type: Sister-chromatid exchange (SCE) in vitro, Assay Code: SC2+, Evaluation Type: Evaluation A (Pre-1980)) “active; positive”; (Species/Cell Type: Nonhuman, Assay Type: Sister-chromatid exchange (SCE) in vivo, Assay Code: SC3+, Evaluation Type: Evaluation B (Post-1980)) “active; positive”; (Species/Cell Type: Saccharomyces cerevisiae, Assay Type: Forward gene mutation, Assay Code: YEFT, Evaluation Type: Evaluation A (Pre-1980)) “no conclusion”. In addition, the call under setting [4] was “active; positive”.

For the compound `CN(C)N=Nc1c(F)cc(F)cc1F`, under setting [5], the mutagenic call was “active; positive”.

For the compound `CN(N=O)C(=O)N[C@@H]1O[C@H](CO)[C@H](O)[C@H](O)[C@H]1O`, the mutagenic call (Species/Cell Type: Chinese hamster lung (V79) cells, Assay Type: Forward gene mutation at the HPRT or ouabain locus, Assay Code: V79+, Evaluation Type: Evaluation A (Pre-1980)) is “active; positive”.

As for `CCCCCN(CCCC)N=O`, the mutagenic call under setting [6] is “active; positive”.

With `O=C1C=C(N2CC2)C(=O)C(N2CC2)=C1N1CC1`, the mutagenic call under setting [5] was “active; positive”; the mutagenic call (Species/Cell Type: Drosophila melanogaster, Sex: Male, Assay Type: Heritable translocation test, chromosome aberrations, Assay Code: DHT+, Evaluation Type: Evaluation A (Pre-1980)) is “active; positive”; the mutagenic call under setting [2] was “active; positive”; the mutagenic call (Species/Cell Type: Hordeum vulgare (barley), Assay Type: Chromosome aberrations, Assay Code: HOC+D, Dose Response: With dose response, Evaluation Type: Evaluation A (Pre-1980)) is “active; positive”; the mutagenic call (Species/Cell Type: Human lymphocytes or leukocytes, Assay Type: Chromosome aberrations in vitro, Assay Code: CY7T, Evaluation Type: Evaluation A (Pre-1980)) is “no conclusion”; the mutagenic call (Species/Cell Type: Human lymphocytes, Assay Type: Sister-chromatid exchange (SCE) in vitro, Assay Code: SCL+D, Dose Response: With dose response, Evaluation Type: Evaluation A (Pre-1980)) was “active; positive”. For the same compound, the mutagenic call is “active; positive” (Species/Cell Type: Human, Assay Type: Sister-chromatid exchange (SCE) in vitro, Assay Code: SC1+D, Dose Response: With dose response, Evaluation Type: Evaluation A (Pre-1980)); “no conclusion” under setting [7]; “active; positive” (Species/Cell Type: Mammalian oocytes or early embryo, Assay Type: Chromosome aberrations in vivo, Assay Code: CYO+, Evaluation Type: Evaluation A (Pre-1980)); “active; positive” (Species/Cell Type: Mammalian polychromatic erythrocytes, Assay Type: Micronucleus test, chromosome aberrations, Assay Code: MNT+, Evaluation Type: Evaluation A (Pre-1980)); “active; positive” under setting [3]; “active; positive” (Species/Cell Type: Nonhuman, Assay Type: Sister-chromatid exchange (SCE) in vitro, Assay Code: SC2+D, Dose Response: With dose response, Evaluation Type: Evaluation A (Pre-1980)). In addition, the mutagenic call reads like this: (Species/Cell Type: Nonhuman, Assay Type: Sister-chromatid exchange (SCE) in vivo, Assay Code: SC3+D, Dose Response: With dose response, Evaluation Type: Evaluation A (Pre-1980)) “active; positive”; (Species/Cell Type: Rodents, Sex: Female, Assay Type: Dominant lethal test, Assay Code: DLTF+D, Dose Response: With dose response, Evaluation Type: Evaluation A (Pre-1980)) “active; positive”; (Species/Cell Type: Rodents, Sex: Male, Assay Type: Dominant lethal test, Assay Code: DLT+D, Dose Response: With dose response, Evaluation Type: Evaluation A (Pre-1980)) “active; positive”; (Species/Cell Type: Saccharomyces cerevisiae, Assay Type: Mitotic recombination or gene conversion, Assay Code: YEC+, Evaluation Type: Evaluation A (Pre-1980)) “active; positive”; (Species/Cell Type: Saccharomyces cerevisiae, Assay Type: Reverse gene mutation, Assay Code: YER+, Evaluation Type: Evaluation A (Pre-1980)) “active; positive”; (Species/Cell Type: Salmonella typhimurium, Escherichia coli, Serratia marcesens, Assay Type: Forward and reverse gene mutation, host-mediated assay, Assay Code: HMN+, Evaluation Type: Evaluation A (Pre-1980)) “active; positive”. In addition, under setting [4], the call was “active; positive”.

Take `CCCOS(C)(=O)=O`: the mutagenic call by setting is: (Species/Cell Type: Hordeum vulgare (barley), Assay Type: Chromosome aberrations, Assay Code: HOC+, Evaluation Type: Evaluation A (Pre-1980)) “active; positive”; (Species/Cell Type: Hordeum vulgare (barley), Assay Type: Gene mutation, Assay Code: HOM+D, Dose Response: With dose response, Evaluation Type: Evaluation A (Pre-1980)) “active; positive”; under setting [7], “no conclusion”; (Species/Cell Type: Mouse germ cells, Sex: Male, Assay Type: Unscheduled DNA synthesis (UDS) in vivo, DNA effects, Assay Code: UDT+, Evaluation Type: Evaluation A (Pre-1980)) “active; positive”; (Species/Cell Type: Mouse, Sex: Male, Assay Type: Specific locus test, gene mutation, Assay Code: SLT+, Evaluation Type: Evaluation A (Pre-1980)) “active; positive”; (Species/Cell Type: Rodents, Sex: Male, Assay Type: Dominant lethal test, Assay Code: DLT+, Evaluation Type: Evaluation A (Pre-1980)) “active; positive”.

On to `FC(F)F`, for which, under setting [1], the mutagenic call is on record as “no conclusion”.

On to `Cc1ccc(Cl)cc1`, for which the mutagenic call (Species/Cell Type: Saccharomyces cerevisiae, Assay Type: Mitotic recombination or gene conversion, Assay Code: YEH-, Evaluation Type: Evaluation A (Pre-1980)) is “inactive; negative”; the mutagenic call (Species/Cell Type: Salmonella typhimurium (one or more of the five standard strains: TA98, TA100, TA1535, TA1537, and TA1538), Assay Type: Histidine reverse gene mutation, Ames assay, Assay Code: SAL-, Evaluation Type: Evaluation A (Pre-1980)) is “inactive; negative”.

Turning to `CC(C)C[C@H](NC(=O)N[C@H](C(=O)N[C@@H](CCC(N)=O)C(=O)N[C@@H](C)C=O)[C@@H]1CCNC(N)=N1)C(=O)O`, the mutagenic call is listed as “no conclusion” (Species/Cell Type: Human, Assay Type: Sister-chromatid exchange (SCE) in vitro, Assay Code: SC1T, Evaluation Type: Evaluation B (Post-1980)) and “no conclusion” (Species/Cell Type: Nonhuman, Assay Type: Sister-chromatid exchange (SCE) in vitro, Assay Code: SC2T, Evaluation Type: Evaluation B (Post-1980)).

For the compound `CC1=CCc2c1c(C)c(C)c1c2ccc2ccccc21`, under setting [6], the mutagenic call is “active; positive”.

As for `Nc1c(N=Nc2ccc(S(=O)(=O)O)cc2)cc(N=Nc2ccc(S(=O)(=O)O)cc2)c(N)c1N=Nc1ccc(S(=O)(=O)O)cc1`, the mutagenic call (Species/Cell Type: Salmonella typhimurium (one or more of the five standard strains: TA98, TA100, TA1535, TA1537, and TA1538), Assay Type: Histidine reverse gene mutation, Ames assay, Assay Code: SALT, Evaluation Type: Evaluation A (Pre-1980)) is reported as “no conclusion”.
